Assay results published in ChEMBL document CHEMBL5543125, “Discovery of 2,3-Dihydro[1,4]dioxino[2,3-g]benzofuran Derivatives as Protease Activated Receptor 4 (PAR4) Antagonists with Potent Antiplatelet Aggregation Activity and Low Bleeding Tendency” (J Med Chem, 2024).
The source made the active and inactive calls. The calls are words filed in the database; no cut-off is given here.

How the values were obtained:
Platelet [1] = experiment: Inhibition of platelet aggregation in human platelet rich plasma preincubated for 5 mins followed by aggregation inducer addition and measured after 5 mins by light transmission aggregometry; assay type: functional, cell-based
Platelet [2] = experiment: Inhibition of platelet aggregation in human platelet rich plasma at 20 uM preincubated for 5 mins followed by aggregation inducer addition and measured after 5 mins by light transmission aggregometry relative to control; assay type: functional; conditions: 10 min
[3] = Metabolic stability in human liver microsomes assessed as half life at 1 uM preincubated for 1 hr followed by NADPH addition and measured upto 60 mins by LC-MS/MS analysis; assay type: ADME, Microsome; conditions: time < 120 min
[4] = Toxicity in C57BL/6J mouse assessed as prolongation of bleeding time at 3 to 12 mg/kg, po administered via oral gavage and measured after 2 hrs; assay type: organism-based; conditions: in vivo, dose 3-12 mg/kg
[5] = biological target: T1, Proteinase-activated receptor 4 (Homo sapiens) (UniProt Q96RI0); experiment: Antagonist activity at PAR4 in human filtered plasma assessed as inhibition of PAR4-activated peptide AYPGPK-NH2 induced platelet aggregation at 100 nM preincubated for 5 mins followed by aggregation inducer addition and measured after 5 mins by light transmission aggregometry relative to control; assay type: functional, cell-free; conditions: filed as antagonist, time 10.0 min
T1 sequence (whole entry): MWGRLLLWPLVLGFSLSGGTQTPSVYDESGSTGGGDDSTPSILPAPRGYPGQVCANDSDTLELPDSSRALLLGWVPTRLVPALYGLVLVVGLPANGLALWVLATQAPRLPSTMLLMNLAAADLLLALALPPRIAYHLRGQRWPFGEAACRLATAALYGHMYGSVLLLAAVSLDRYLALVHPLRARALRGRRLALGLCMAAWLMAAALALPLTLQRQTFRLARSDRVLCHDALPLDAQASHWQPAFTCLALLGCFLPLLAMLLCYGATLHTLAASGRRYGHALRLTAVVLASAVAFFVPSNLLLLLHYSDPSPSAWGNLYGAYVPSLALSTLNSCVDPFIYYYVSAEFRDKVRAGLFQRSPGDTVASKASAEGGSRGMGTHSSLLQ

[6] = Oral bioavailability in Sprague-Dawley rat at 50 mg/kg; assay type: ADME, organism-based; conditions: in vivo

Structure (SMILES)	inhibition at 20 µM (Platelet [2]) [%]	half-life at 1 µM [3] [min]	also measured
COc1nn2cc(-c3cc4c(OCc5csc(N6CCSCC6)n5)cc5c(c4o3)OCCO5)nc2s1	82.1	–	IC50 (Platelet [1]): 9.2 nM
COc1nn2cc(-c3cc4c(OCCN5CCS(=O)(=O)CC5)cc5c(c4o3)OCCO5)nc2s1	-4.63	–	–
COc1nn2cc(-c3cc4ccc5c(c4o3)OCO5)nc2s1	77.5	16.2	IC50 (Platelet [1]): 18.8 nM
[2H]c1cc2c(c3oc(-c4cn5nc(OC)sc5n4)cc13)OCCO2	79.9	15	IC50 (Platelet [1]): 2.8 nM
COc1nn2cc(-c3cc4c(OCc5nc(N6CCOCC6)sc5C)cc5c(c4o3)OCCO5)nc2s1	85.2	14.8	IC50 (Platelet [1]): 9.2 nM
COc1nn2cc(-c3cc4ccc5c(c4o3)CCO5)nc2s1	83.7	–	IC50 (Platelet [1]): 17.8 nM
COc1nn2cc(-c3cc4c(C5CC5)cc5c(c4o3)OCCO5)nc2s1	75.6	–	IC50 (Platelet [1]): 18.7 nM
COc1nn2cc(-c3cc4c(OCc5csc(-c6ccc(C(=O)N(C)C)cc6)n5)cc5c(c4o3)OCCO5)nc2s1	80.8	55.8	–
COc1nn2cc(-c3cc4cc5c(cc4o3)OCCO5)nc2s1	88.4	–	–
COc1nn2cc(-c3cc4c(Br)cc5c(c4o3)OCCO5)nc2s1	83.1	59.7	IC50 (Platelet [1]): 18.4 nM
COc1nn2cc(-c3cc4c5c(ccc4o3)OCCO5)nc2s1	18.4	–	–
COCCCc1cc2c(c3oc(-c4cn5nc(OC)sc5n4)cc13)OCCO2	4.17	–	–
CSc1nn2cc(-c3cc4ccc5c(c4o3)OCCOCCO5)nc2s1	-1.3	–	–
COC(=O)[C@H](c1ccccc1Cl)N1CCc2sccc2C1 [CLOPIDOGREL]	–	–	Activity [4]: Toxic
COc1nn2cc(-c3cc4c(C(F)(F)F)cc5c(c4o3)OCCO5)nc2s1	5.75	–	–
CCOC(=O)N[C@@H]1CC[C@@H]2[C@@H](C1)C[C@H]1C(=O)O[C@H](C)[C@H]1[C@H]2/C=C/c1ccc(-c2cccc(F)c2)cn1	–	–	Activity [5]: Active
COc1nn2cc(-c3cc4ccc5c(c4o3)C=CC(C)(C)O5)nc2s1	2.58	–	–
Cc1ccc2nc(-c3cc4ccc5c(c4o3)OCCO5)cn2n1	85	10.6	IC50 (Platelet [1]): 10.8 nM

Structure (SMILES)	inhibition at 20 µM (Platelet [2]) [%]	half-life at 1 µM [3] [min]	also measured
COc1nn2cc(-c3cc4c(OCCN5CCOCC5)cc5c(c4o3)OCCO5)nc2s1	78.9	33	–
COc1nn2cc(-c3cc4c(-c5ccc(C)cc5)cc5c(c4o3)OCCO5)nc2s1	-0.13	–	–
COc1nn2cc(-c3cc4ccc5c(c4o3)CCCC5)nc2s1	8.02	–	–
COc1nn2cc(-c3cc4c(OCC(=O)N5CCN(C(C)=O)CC5)cc5c(c4o3)OCCO5)nc2s1	15.1	–	–
COc1ccc2nc(-c3cc4ccc5c(c4o3)OCCO5)cn2n1	0	–	–
COc1nn2cc(-c3cc4ccc5c(c4o3)OCCCO5)nc2s1	76.8	18.4	IC50 (Platelet [1]): 17.1 nM
COc1nn2cc(-c3cc4ccc5ccccc5c4o3)nc2s1	8.27	–	–
COc1nn2cc(-c3cc4c(N5CCOCC5)cc5c(c4o3)OCCO5)nc2s1	37.1	–	–
COc1nn2cc(-c3cc4c(F)cc5c(c4o3)OCCO5)nc2s1	74.8	34.3	IC50 (Platelet [1]): 9.1 nM; bioavailability [6]: 4.9%
COc1nn2cc(-c3cc4c(OCC(=O)N5CCC(F)(F)CC5)cc5c(c4o3)OCCO5)nc2s1	75.4	16.1	–
COc1nn2cc(-c3cc4ccc5c(c4o3)OCCCCO5)nc2s1	44.8	–	–
COc1nn2cc(-c3cc4c(OCc5csc(-c6ccc(C(F)(F)F)cc6)n5)cc5c(c4o3)OCCO5)nc2s1	6.57	–	–
FC(F)(F)c1nn2cc(-c3cc4ccc5c(c4o3)OCCO5)nc2s1	3.89	–	–
c1cnn2cc(-c3cc4ccc5c(c4o3)OCCO5)nc2n1	2.08	–	–
COc1nn2cc(-c3cc4c(OCc5ccccc5)cc5c(c4o3)OCCO5)nc2s1	7.4	–	–
COc1nn2cc(-c3cc4ccc5c(c4o3)CCCO5)nc2s1	1.14	–	–
COc1nn2cc(-c3cc4c(Cl)cc5c(c4o3)OCCO5)nc2s1	43.2	–	–
CSc1nn2cc(-c3cc4ccccc4o3)nc2s1	81	11.1	–
